system: human σ1 receptor and human μ-opioid receptor; experiment: Human σ1 receptor radioligand assay and human μ-opioid receptor radioligand assay (μ and σ1 dual binding); design: key to μ and σ1 dual binding: +: Both Ki-μ and Ki-σ1>=500 nM; ++: One Ki<500 nM while the other Ki is >=500 nM; +++: Both Ki-μ and Ki-σ1<500 nM; ++++: Both Ki-μ and Ki-σ1<100 nM; conditions: not given

Q: Which “μ and σ1 dual binding” value does the source give for `CC(=O)N1CCc2ccccc2C12CCN(CC1CCOCC1)CC2` [Example 9, 1-(1′-((tetrahydro-2H-pyran-4-yl)methyl)-3,4-dihydro-2H-spiro[isoquinoline-1,4'-piperidine]-2-yl)ethanone] here?
A: ++

Q: With `CC(=O)N1CCc2ccccc2C12CCN(CCOC(C)C)CC2` [Example 11, 1-(1′-(2-isopropoxyethyl)-3,4-dihydro-2H-spiro[isoquinoline-1,4′-piperidine]-2-yl)ethanone] as the compound, how does the Ki read?
A: < 500 nM

Q: With `CC(=O)N1CCc2ccccc2C12CCN(CC(C)C)CC2` [Example 12, 1-(1′-isobutyl-3,4-dihydro-2H-spiro[isoquinoline-1,4′-piperidine]-2-yl)ethanone] as the compound, how does the “μ and σ1 dual binding” value read?
A: ++

Q: With `CC(=O)N1CCc2ccccc2C12CCN(CC1CCCCC1)CC2` [Example 13, 1-(1′-(cyclohexylmethyl)-3,4-dihydro-2H-spiro[isoquinoline-1,4′-piperidine]-2-yl)ethanone] as the compound, how does the Ki read?
A: < 500 nM

Q: For `CC(=O)N1CCc2ccccc2C12CCN(CCC(C)C)CC2` [Example 15, 1-(1′-isopentyl-3,4-dihydro-2H-spiro[isoquinoline-1,4′-piperidine]-2-yl)ethanone], which Ki is on record?
A: < 500 nM

Q: How did the “μ and σ1 dual binding” value turn out when `CC(=O)N1CCc2ccccc2C12CCN(Cc1ccccn1)CC2` [Example 17, 1-(1′-(pyridin-2-ylmethyl)-3,4-dihydro-2H-spiro[isoquinoline-1,4′-piperidine]-2-yl)ethanone] was run?
A: ++

Q: `CC(=O)N1CCc2ccccc2C12CCN(CCOc1ccccc1)CC2` [Example 20, 1-(1′-(2-phenoxyethyl)-3,4-dihydro-2H-spiro[isoquinoline-1,4′-piperidine]-2-yl)ethanone] was tested. Which “μ and σ1 dual binding” value did it give?
A: ++

Q: `CCOCCN1CCC2(CC1)c1ccccc1CCN2C(C)=O` [Example 24, 1-(1′-(2-ethoxyethyl)-3,4-dihydro-2H-spiro[isoquinoline-1,4′-piperidine]-2-yl)ethanone] was tested. Which “μ and σ1 dual binding” value did it give?
A: ++

Q: For `CC(=O)N1CCc2ccccc2C12CCN(CCOCC1CC1)CC2` [Example 30, 1-(1′-(2-(cyclopropylmethoxy)ethyl)-3,4-dihydro-2H-spiro[isoquinoline-1,4′-piperidine]-2-yl)ethanone], which Ki is on record?
A: < 500 nM

Q: `CC(=O)N1CCc2ccccc2C12CCN(CCOCC(C)C)CC2` [Example 31] was tested. Which Ki did it give?
A: < 500 nM

Q: `CC(=O)N1CCc2ccccc2C12CCN(CCOCc1ccccc1)CC2` [Example 32, 1-(1′-(2-(benzyloxy)ethyl)-3,4-dihydro-2H-spiro[isoquinoline-1,4′-piperidine]-2-yl)ethanone] was tested. Which “μ and σ1 dual binding” value did it give?
A: ++

Q: How did the “μ and σ1 dual binding” value turn out when `CC(=O)N1CCc2ccccc2C12CCN(CCC(=O)N(C)c1ccccc1)CC2` [Example 35, 3-(2-acetyl-3,4-dihydro-2H-spiro[isoquinoline-1,4′-piperidine]-1′-yl)-N-methyl-N-phenylpropanamide] was run?
A: ++

Q: `CC(=O)N1CCc2ccccc2C12CCN(CCOc1ccccn1)CC2` [Example 42, 1-(1′-(2-(Pyridin-2-yloxy)ethyl)-3,4-dihydro-2H-spiro[isoquinoline-1,4′-piperidine]-2-yl)ethanone] was tested. Which “μ and σ1 dual binding” value did it give?
A: ++

Q: For `CC(=O)N1CCc2ccccc2C12CCN(CCOc1cccnc1)CC2` [Example 43, 1-(1′-(2-(pyridin-3-yloxy)ethyl)-3,4-dihydro-2H-spiro[isoquinoline-1,4′-piperidine]-2-yl)ethanone], which “μ and σ1 dual binding” value is on record?
A: ++

Q: How did the “μ and σ1 dual binding” value turn out when `CC(=O)N1CCc2ccccc2C12CCN(CCOc1ccncc1)CC2` [Example 44, 1-(1′-(2-(pyridin-4-yloxy)ethyl)-3,4-dihydro-2H-spiro[isoquinoline-1,4′-piperidine]-2-yl)ethanone] was run?
A: ++

Q: For `CS(=O)(=O)N1CCc2ccccc2C12CCN(CCc1ccccc1)CC2` [Example 53, 2-(Methylsulfonyl)-1′-phenethyl-3,4-dihydro-2H-spiro[isoquinoline-1,4′-piperidine]], which Ki is on record?
A: < 100 nM

Q: Which Ki does the source give for `CN1CCc2ccccc2C12CCN(CCc1ccccc1)CC2` [Example 54, 2-methyl-1′-phenethyl-3,4-dihydro-2H-spiro[isoquinoline-1,4′-piperidine]] here?
A: < 100 nM

Q: Which Ki does the source give for `COc1ccc2c(c1)CCN(C)C21CCN(CCc2ccccc2)CC1` [Example 55, 6-methoxy-2-methyl-1′-phenethyl-3,4-dihydro-2H-spiro[isoquinoline-1,4′-piperidine]] here?
A: < 100 nM

Q: How did the Ki turn out when `CCN(CC)C(=O)CN1CCC2(CC1)c1ccccc1CCN2C` [Example 56, N,N-diethyl-2-(2-methyl-3,4-dihydro-2H-spiro[isoquinoline-1,4′-piperidine]-1′-yl)acetamide] was run?
A: < 500 nM

Q: Which “μ and σ1 dual binding” value does the source give for `CN1CCc2ccccc2C12CCN(CC(=O)N1CCCOCC1)CC2` [Example 57, 2-(2-methyl-3,4-dihydro-2H-spiro[isoquinoline-1,4′-piperidine]-1′-yl)-1-(1,4-oxazepan-4-yl)ethanone] here?
A: ++

Q: `CN1CCc2ccccc2C12CCN(CC(=O)N1CCC(F)CC1)CC2` [Example 58, 1-(4-fluoropiperidin-1-yl)-2-(2-methyl-3,4-dihydro-2H-spiro[isoquinoline-1,4′-piperidine]-1′-yl)ethanone] was tested. Which Ki did it give?
A: < 500 nM

Q: Which “μ and σ1 dual binding” value does the source give for `COC1CCN(C(=O)CN2CCC3(CC2)c2ccccc2CCN3C)CC1` [Example 60, 1-(4-methoxypiperidin-1-yl)-2-(2-methyl-3,4-dihydro-2H-spiro[isoquinoline-1,4′-piperidine]-1′-yl)ethanone] here?
A: ++

Q: `CN1CCc2ccccc2C12CCN(CC(=O)N1CCC(F)(F)CC1)CC2` [Example 61, 1-(4,4-difluoropiperidin-1-yl)-2-(2-methyl-3,4-dihydro-2H-spiro[isoquinoline-1,4′-piperidine]-1′-yl)ethanone] was tested. Which Ki did it give?
A: < 500 nM

Q: For `CN1CCc2ccccc2C12CCN(CC(=O)N1CCC3(CC1)CC3)CC2` [Example 62, 2-(2-methyl-3,4-dihydro-2H-spiro[isoquinoline-1,4′-piperidine]-1′-yl)-1-(6-azaspiro[2.5]octan-6-yl)ethanone], which Ki is on record?
A: < 100 nM

Q: For `CCN1CCc2ccccc2C12CCN(CCc1ccccc1)CC2` [Example 63, 2-Ethyl-1′-phenethyl-3,4-dihydro-2H-spiro[isoquinoline-1,4′-piperidine]], which Ki is on record?
A: < 100 nM

Q: Which Ki does the source give for `c1ccc(CCN2CCC3(CC2)c2ccccc2CCN3Cc2nccs2)cc1` [Example 64, 2-((1′-phenethyl-3,4-dihydro-2H-spiro[isoquinoline-1,4′-piperidine]-2-yl)methyl)thiazole] here?
A: < 500 nM

Q: Which Ki does the source give for `CN1CCc2ccccc2C12CCN(CCN1CCOCC1)CC2` [Example 65, 4-(2-(2-Methyl-3,4-dihydro-2H-spiro[isoquinoline-1,4′-piperidine]-1′-yl)ethyl)morpholine] here?
A: < 500 nM

Q: With `CN1CCc2ccccc2C12CCN(CC1CCCCC1)CC2` [Example 66, 1′-(cyclohexylmethyl)-2-methyl-3,4-dihydro-2H-spiro[isoquinoline-1,4′-piperidine]] as the compound, how does the Ki read?
A: < 500 nM

Q: `CN1CCc2ccccc2C12CCN(CC1CCOCC1)CC2` [Example 67, 2-methyl-1′-((tetrahydro-2H-pyran-4-yl)methyl)-3,4-dihydro-2H-spiro[isoquinoline-1,4′-piperidine]] was tested. Which “μ and σ1 dual binding” value did it give?
A: ++

Q: How did the Ki turn out when `CN(C)C(=O)CCN1CCC2(CC1)c1ccccc1CCN2C` [Example 68, N,N-dimethyl-3-(2-methyl-3,4-dihydro-2H-spiro[isoquinoline-1,4′-piperidine]-1′-yl)propanamide] was run?
A: < 500 nM

same assay, conditions: combined class for Ki-μ ([3H]-DAMGO, CHO-K1 membranes) and Ki-σ1 ([3H](+)-pentazocine, HEK-293 membranes)

Q: For `CC(=O)N1CCc2ccccc2C12CCN(CCN1CCCCC1)CC2` [Example 14, 1-(1′-(2-(piperidin-1-yl)ethyl)-3,4-dihydro-2H-spiro[isoquinoline-1,4′-piperidine]-2-yl)ethanone], which Ki is on record?
A: ≥ 500 nM

Q: How did the Ki turn out when `CC(=O)N1CCc2ccccc2C12CCN(CCC(=O)N(C)C)CC2` [Example 22, 3-(2-acetyl-3,4-dihydro-2H-spiro[isoquinoline-1,4′-piperidine]-1′-yl)-N,N-dimethylpropanamide] was run?
A: ≥ 500 nM

Q: For `CC(=O)N1CCc2ccccc2C12CCN(CC1CC1)CC2` [Example 33, 1-(1′-(Cyclopropylmethyl)-3,4-dihydro-2H-spiro[isoquinoline-1,4′-piperidine]-2-yl)ethanone], which Ki is on record?
A: ≥ 500 nM

Q: With `CC(=O)N1CCc2ccccc2C12CCN(CC(=O)N1CCOCC1)CC2` [Example 34, 2-(2-acetyl-3,4-dihydro-2H-spiro[isoquinoline-1,4′-piperidine]-1′-yl)-1-morpholinoethanone] as the compound, how does the Ki read?
A: ≥ 500 nM

Q: `CC(=O)N1CCc2ccccc2C12CCN(CCNC(=O)OC(C)(C)C)CC2` [Example 37, tert-butyl 2-(2-acetyl-3,4-dihydro-2H-spiro[isoquinoline-1,4′-piperidine]-1′-yl)ethylcarbamate] was tested. Which Ki did it give?
A: ≥ 500 nM

Q: With `CC(=O)OC(CN1CCC2(CC1)c1ccccc1CCN2C(C)=O)c1ccccc1` (centres unmarked) [Example 39, 2-(2-Acetyl-3,4-dihydro-2H-spiro[isoquinoline-1,4′-piperidine]-1′-yl)-1-phenylethyl acetate] as the compound, how does the Ki read?
A: ≥ 500 nM

Q: `CC(=O)N1CCc2ccccc2C12CCN(CCO)CC2` [Example 41, 1-(1′-(2-Hydroxyethyl)-3,4-dihydro-2H-spiro[isoquinoline-1,4′-piperidine]-2-yl)ethanone] was tested. Which Ki did it give?
A: ≥ 500 nM

Q: How did the Ki turn out when `CC(=O)N1CCc2ccccc2C12CCN(CCN(C)C(=O)OC(C)(C)C)CC2` [Example 46, tert-Butyl 2-(2-acetyl-3,4-dihydro-2H-spiro[isoquinoline-1,4′-piperidine]-1′-yl)ethyl(methyl)carbamate] was run?
A: ≥ 500 nM

Q: `CNCCN1CCC2(CC1)c1ccccc1CCN2C(C)=O` [Example 47, 1-(1′-(2-(Methylamino)ethyl)-3,4-dihydro-2H-spiro[isoquinoline-1,4′-piperidine]-2-yl)ethanone] was tested. Which Ki did it give?
A: ≥ 500 nM

Q: With `CC(=O)Oc1ccc2c(c1)CCN(C(C)=O)C21CCN(CCc2ccccc2)CC1` [Example 49, 2-Acetyl-1′-phenethyl-3,4-dihydro-2H-spiro[isoquinoline-1,4′-piperidine]-6-yl acetate] as the compound, how does the Ki read?
A: ≥ 500 nM

Q: With `CN1CCc2ccccc2C12CCN(CC(=O)N1CCC(C(C)(C)O)CC1)CC2` [Example 59, 1-(4-(2-hydroxypropan-2-yl)piperidin-1-yl)-2-(2-methyl-3,4-dihydro-2H-spiro[isoquinoline-1,4′-piperidine]-1′-yl)ethanone] as the compound, how does the Ki read?
A: ≥ 500 nM
